How the values were obtained:
Capivasertib = compound: C1CN(CCC1(C(=O)N[C@@H](CCO)C2=CC=C(C=C2)Cl)N)C3=NC=NC4=C3C=CN4 [Capivasertib]; details: max 10 µM
Procedure, shortened: (§1)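 Cancer cell lines in 1536-well plates (7.5 μl DMEM/F12 or RPMI, 10% FBS) were held 24 hours at 37°C and 5% CO2 and then dosed for 72 hours at a final DMSO of typically 0.2%. Viability was taken from CellTiter-Glo 2.0 luminescence, scaled between blank-well and DMSO-well means. Curves were fitted as two-parameter logistic models with a non-linear mixed effects model, from which the single-agent IC50 was taken.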

AZD1775 = compound: C=CCn1c(=O)c2cnc(Nc3ccc(N4CCN(C)CC4)cc3)nc2n1-c1cccc(C(C)(C)O)n1 [AZD1775]; details: max 3 µM
Procedure, shortened: as §1

Trametinib = compound: CC(=O)Nc1cccc(-n2c(=O)n(C3CC3)c(=O)c3c(Nc4ccc(I)cc4F)n(C)c(=O)c(C)c32)c1 [Trametinib]; details: max 1 µM
Procedure, shortened: as §1

Palbociclib = compound: CC(=O)c1c(C)c2cnc(Nc3ccc(N4CCNCC4)cn3)nc2n(C2CCCC2)c1=O [Palbociclib]; details: max 10 µM
Procedure, shortened: as §1

AZD1390 = compound: CC(C)n1c(=O)n(C)c2cnc3cc(F)c(-c4ccc(OCCCN5CCCCC5)nc4)cc3c21 [AZD1390]; details: max 0.3 µM
Procedure, shortened: as §1

Venetoclax = compound: CC1(C)CCC(CN2CCN(c3ccc(C(=O)NS(=O)(=O)c4ccc(NCC5CCOCC5)c([N+](=O)[O-])c4)c(Oc4cnc5[nH]ccc5c4)c3)CC2)=C(c2ccc(Cl)cc2)C1 [Venetoclax]; details: max 1 µM
Procedure, shortened: as §1

Dasatinib = compound: CC1=C(C(=CC=C1)Cl)NC(=O)C2=CN=C(S2)NC3=CC(=NC(=N3)C)N4CCN(CC4)CCO [Dasatinib]; details: max 2 µM
Procedure, shortened: as §1

SG3199 = compound: CC1=CN2[C@@H](C1)C=NC3=CC(=C(C=C3C2=O)OC)OCCCCCOC4=C(C=C5C(=C4)N=C[C@@H]6CC(=CN6C5=O)C)OC [SG3199]; details: max 0.001 µM
Procedure, shortened: as §1

AZD2811 = compound: CCN(CCO)CCCOc1ccc2c(Nc3cc(CC(=O)Nc4cccc(F)c4)[nH]n3)ncnc2c1 [AZD2811]; details: max 1 µM
Procedure, shortened: as §1

SN-38 = compound: CCc1c2c(nc3ccc(O)cc13)-c1cc3c(c(=O)n1C2)COC(=O)[C@]3(O)CC [SN-38]; details: max 0.3 µM
Procedure, shortened: as §1

AZD0156 = compound: CN(C)CCCOc1ccc(-c2ccc3ncc4c(c3c2)n(C2CCOCC2)c(=O)n4C)cn1 [AZD0156]; details: max 3 µM
Procedure, shortened: as §1

AZD4320 = compound: CN(CC[C@H](CSC1=CC=CC=C1)NC2=C(C=C(C=C2)S(=O)(=O)NC(=O)C3=CC=C(C=C3)N4CCC(CC4)[C@H](C5=CC=CC=C5C6=CC=C(C=C6)Cl)O)S(=O)(=O)C(F)(F)F)CCO [AZD4320]; details: max 1 µM
Procedure, shortened: as §1

Alisertib = compound: COc1cc(Nc2ncc3c(n2)-c2ccc(Cl)cc2C(c2c(F)cccc2OC)=NC3)ccc1C(=O)O [Alisertib]; details: max 10 µM
Procedure, shortened: as §1

Gefitinib = compound: COc1cc2ncnc(Nc3ccc(F)c(Cl)c3)c2cc1OCCCN1CCOCC1 [Gefitinib]; details: max 10 µM
Procedure, shortened: as §1

Prexasertib = compound: COc1cccc(OCCCN)c1-c1cc(Nc2cnc(C#N)cn2)n[nH]1 [Prexasertib]; details: max 1 µM
Procedure, shortened: as §1

Doxorubicin = compound: COc1cccc2c1C(=O)c1c(O)c3c(c(O)c1C2=O)C[C@@](O)(C(=O)CO)C[C@@H]3O[C@H]1C[C@H](N)[C@H](O)[C@H](C)O1 [Doxorubicin]; details: max 1 µM
Procedure, shortened: as §1

AZD5153 = compound: COc1nnc2ccc(N3CCC(c4ccc(OCCN5CCN(C)C(=O)[C@H]5C)cc4)CC3)nn12 [AZD5153]; details: max 1 µM
Procedure, shortened: as §1

Lapatinib = compound: CS(=O)(=O)CCNCc1ccc(-c2ccc3ncnc(Nc4ccc(OCc5cccc(F)c5)c(Cl)c4)c3c2)o1 [Lapatinib]; details: max 10 µM
Procedure, shortened: as §1

AZD8186 = compound: C[C@@H](Nc1cc(F)cc(F)c1)c1cc(C(=O)N(C)C)cc2c(=O)cc(N3CCOCC3)oc12 [AZD8186]; details: max 3 µM
Procedure, shortened: as §1

Crizotinib = compound: C[C@@H](Oc1cc(-c2cnn(C3CCNCC3)c2)cnc1N)c1c(Cl)ccc(F)c1Cl [Crizotinib]; details: max 10 µM
Procedure, shortened: as §1

Savolitinib = compound: C[C@@H](c1ccc2nccn2c1)n1nnc2ncc(-c3cnn(C)c3)nc21 [Savolitinib]; details: max 1 µM
Procedure, shortened: as §1

AZD6738 = compound: C[C@@H]1COCCN1C2=NC(=NC(=C2)C3(CC3)[S@](=N)(=O)C)C4=C5C=CNC5=NC=C4 [AZD6738]; details: max 10 µM
Procedure, shortened: as §1

AZD5991 = compound: Cc1c2c(nn1C)CSCc1cc(n(C)n1)CSc1cc(c3ccccc3c1)OCCCc1c(C(=O)O)n(C)c3c-2c(Cl)ccc13 [AZD5991]; details: max 1 µM
Procedure, shortened: as §1

AZD7648 = compound: Cc1cc2ncnn2cc1Nc1ncc2c(n1)n(C1CCOCC1)c(=O)n2C [AZD7648]; details: max 10 µM
Procedure, shortened: as §1

Taselisib = compound: Cc1nc(-c2cn3c(n2)-c2ccc(-c4cnn(C(C)(C)C(N)=O)c4)cc2OCC3)n(C(C)C)n1 [Taselisib]; details: max 10 µM
Procedure, shortened: as §1

Selumetinib = compound: Cn1cnc2c(F)c(Nc3ccc(Br)cc3Cl)c(C(=O)NOCCO)cc21 [Selumetinib]; details: max 10 µM
Procedure, shortened: as §1

Olaparib = compound: O=C(c1cc(Cc2n[nH]c(=O)c3ccccc23)ccc1F)N1CCN(C(=O)C2CC2)CC1 [Olaparib]; details: max 10 µM
Procedure, shortened: as §1

MK-2206 = compound: NC1(c2ccc(-c3nc4ccn5c(=O)[nH]nc5c4cc3-c3ccccc3)cc2)CCC1 [MK-2206]; details: max 10 µM
Procedure, shortened: as §1

| Cell Line | IC50, cell viability 72 h (Capivasertib) | IC50, cell viability 72 h (AZD1775) | IC50, cell viability 72 h (Trametinib) | IC50, cell viability 72 h (Palbociclib) | IC50, cell viability 72 h (AZD1390) | IC50, cell viability 72 h (Venetoclax) | IC50, cell viability 72 h (Dasatinib) | IC50, cell viability 72 h (SG3199) | IC50, cell viability 72 h (AZD2811) | IC50, cell viability 72 h (SN-38) | IC50, cell viability 72 h (AZD0156) | IC50, cell viability 72 h (AZD4320) | IC50, cell viability 72 h (Alisertib) | IC50, cell viability 72 h (Gefitinib) | IC50, cell viability 72 h (Prexasertib) | IC50, cell viability 72 h (Doxorubicin) | IC50, cell viability 72 h (AZD5153) | IC50, cell viability 72 h (Lapatinib) | IC50, cell viability 72 h (AZD8186) | IC50, cell viability 72 h (Crizotinib) | IC50, cell viability 72 h (Savolitinib) | IC50, cell viability 72 h (AZD6738) | IC50, cell viability 72 h (AZD5991) | IC50, cell viability 72 h (AZD7648) | IC50, cell viability 72 h (Taselisib) | IC50, cell viability 72 h (Selumetinib) | IC50, cell viability 72 h (Olaparib) | IC50, cell viability 72 h (MK-2206) |
| --- | --- | --- | --- | --- | --- | --- | --- | --- | --- | --- | --- | --- | --- | --- | --- | --- | --- | --- | --- | --- | --- | --- | --- | --- | --- | --- | --- | --- |
| A172 (Glioblastoma) | > 10000 nM | > 3000 nM | > 1000 nM | > 10000 nM | > 300 nM | > 1000 nM | > 2000 nM | > 1 nM | 708 nM | 44.1 nM | > 3000 nM | > 1000 nM | 1420 nM | > 10000 nM | 367 nM | 189 nM | > 1000 nM | > 10000 nM | > 3000 nM | > 10000 nM | > 1000 nM | 9490 nM | > 1000 nM | > 10000 nM | > 10000 nM | > 10000 nM | > 10000 nM | – |
| EFM-192A (Breast Carcinoma) | > 10000 nM | > 3000 nM | > 1000 nM | > 10000 nM | > 300 nM | > 1000 nM | > 2000 nM | > 1 nM | > 1000 nM | > 300 nM | > 3000 nM | > 1000 nM | > 10000 nM | > 10000 nM | > 1000 nM | > 1000 nM | > 1000 nM | 1360 nM | > 3000 nM | > 10000 nM | > 1000 nM | > 10000 nM | 706 nM | > 10000 nM | 475 nM | > 10000 nM | > 10000 nM | – |
| ETK-1 (Biliary Tract Carcinoma) | > 10000 nM | 1020 nM | > 1000 nM | > 10000 nM | > 300 nM | > 1000 nM | 580 nM | > 1 nM | > 1000 nM | 227 nM | > 3000 nM | > 1000 nM | 6570 nM | > 10000 nM | 563 nM | > 1000 nM | > 1000 nM | 6780 nM | > 3000 nM | > 10000 nM | > 1000 nM | 6850 nM | > 1000 nM | > 10000 nM | 3330 nM | > 10000 nM | > 10000 nM | > 10000 nM |
| GDM-1 (Acute Myeloid Leukemia) | 8680 nM | 435 nM | > 1000 nM | 8090 nM | > 300 nM | 392 nM | 9.37 nM | > 1 nM | 65.6 nM | 4.15 nM | > 3000 nM | 83.4 nM | 123 nM | > 10000 nM | 40.2 nM | 326 nM | 64.8 nM | > 10000 nM | 1940 nM | 1160 nM | > 1000 nM | 7150 nM | > 1000 nM | 5190 nM | 121 nM | > 10000 nM | > 10000 nM | – |
| HCC1143 (Breast Carcinoma) | > 10000 nM | 1050 nM | > 1000 nM | > 10000 nM | > 300 nM | > 1000 nM | > 2000 nM | > 1 nM | > 1000 nM | 237 nM | > 3000 nM | > 1000 nM | > 10000 nM | > 10000 nM | 19 nM | > 1000 nM | > 1000 nM | > 10000 nM | > 3000 nM | > 10000 nM | > 1000 nM | 2870 nM | > 1000 nM | > 10000 nM | 5950 nM | > 10000 nM | > 10000 nM | > 10000 nM |
| HCC-827 (Lung Adenocarcinoma) | > 10000 nM | > 3000 nM | > 1000 nM | > 10000 nM | > 300 nM | > 1000 nM | 130 nM | > 1 nM | > 1000 nM | > 300 nM | > 3000 nM | > 1000 nM | > 10000 nM | 84.2 nM | 465 nM | > 1000 nM | > 1000 nM | 3000 nM | > 3000 nM | > 10000 nM | > 1000 nM | > 10000 nM | > 1000 nM | > 10000 nM | 8540 nM | > 10000 nM | > 10000 nM | – |
| HOP-92 (Non-Small Cell Lung Carcinoma) | > 10000 nM | > 3000 nM | 139 nM | > 10000 nM | > 300 nM | > 1000 nM | > 2000 nM | > 1 nM | > 1000 nM | 109 nM | > 3000 nM | 140 nM | > 10000 nM | > 10000 nM | 134 nM | > 1000 nM | > 1000 nM | > 10000 nM | > 3000 nM | > 10000 nM | > 1000 nM | > 10000 nM | > 1000 nM | > 10000 nM | 6710 nM | > 10000 nM | > 10000 nM | > 10000 nM |
| HuO9 (Osteosarcoma) | > 10000 nM | 307 nM | > 1000 nM | > 10000 nM | > 300 nM | > 1000 nM | > 2000 nM | > 1 nM | > 1000 nM | 3.15 nM | > 3000 nM | 171 nM | 5740 nM | > 10000 nM | 46.3 nM | 322 nM | 275 nM | > 10000 nM | > 3000 nM | 7070 nM | > 1000 nM | 1160 nM | 64.2 nM | > 10000 nM | 511 nM | > 10000 nM | > 10000 nM | 8020 nM |
